Measurements as given in patent publication US8735375B2, “Therapeutic compositions” (Leo Laboratories Limited, priority 2005, dated 2014).

Experiment: Stability of I3A isoforms in the assay solvent systems over 72 h
Format: physicochemical
Description: The stability of […] isoforms 'a', 'b' and 'c' in the three sample systems over 72 h (equivalent to the maximum possible length of time the samples might be held in the autosampler during a long HPLC analytical run) was confirmed as follows. Standards of the three isoforms of […] The standards were then each divided into three equal volumes and placed at 2-8° C., room temperature and 40° C. for 72 h and were then again analysed by HPLC.

[1] = Acetonitrile/Citrate buffer (pH 3), 72 h 2-8° C.
[2] = Acetonitrile/Citrate buffer (pH 3), 72 h 40° C.
[3] = Acetonitrile/Citrate buffer (pH 3), 72 h RTP
[4] = Acetonitrile/Citrate buffer (pH 3), Time 0 h
[5] = Acetonitrile/Sodium acetate buffer (pH 4.5), 72 h 2-8° C.
[6] = Acetonitrile/Sodium acetate buffer (pH 4.5), 72 h 40° C.
[7] = Acetonitrile/Sodium acetate buffer (pH 4.5), 72 h RTP
[8] = Acetonitrile/Sodium acetate buffer (pH 4.5), Time 0 h

Which “% ‘a’” value (Acetonitrile, 72 h 2-8° C.) does the source give for `CC=C(C)C(=O)OC1C(CO)=CC2C(=O)C3(C=C(C)C(O)C13O)C(C)CC1C2C1(C)C` (stereo not drawn) [Isoform ‘a’, ingenol-5-angelate] here?
Its value is 90.63%.

What about the “% ‘b’” value (Acetonitrile, 72 h 2-8° C.) of the same molecule?
The value was 5.71%.

And the “% ‘c’” value (Acetonitrile, 72 h 2-8° C.)?
The value was 2.55%.

And the “% ‘a’” value (Acetonitrile, 72 h 40° C.)?
The value was 16.36%.

And the “% ‘b’” value (Acetonitrile, 72 h 40° C.)?
Its value is 47.01%.

And the “% ‘c’” value (Acetonitrile, 72 h 40° C.)?
Its value is 35.74%.

And the “% ‘a’” value (Acetonitrile, 72 h RTP)?
Its value is 86.58%.

What about the “% ‘b’” value (Acetonitrile, 72 h RTP) of the same molecule?
Its value is 7.8%.

What about the “% ‘c’” value (Acetonitrile, 72 h RTP) of the same molecule?
The value was 3.65%.

What about the “% ‘a’” value (Acetonitrile, Time 0 h) of the same molecule?
The value was 96.82%.

And the “% ‘b’” value (Acetonitrile, Time 0 h)?
Its value is 2.24%.

And the “% ‘c’” value (Acetonitrile, Time 0 h)?
Its value is 0.29%.

What about the “% ‘a’” value [1] of the same molecule?
Its value is 98.31%.

And the “% ‘b’” value [1]?
Its value is 1.46%.

What about the “% ‘c’” value [1] of the same molecule?
Its value is 0%.

What about the “% ‘a’” value [2] of the same molecule?
The value was 98.13%.

What about the “% ‘b’” value [2] of the same molecule?
The value was 1.79%.

What about the “% ‘c’” value [2] of the same molecule?
Its value is 0%.

What about the “% ‘a’” value [3] of the same molecule?
Its value is 98.84%.

And the “% ‘b’” value [3]?
Its value is 1.08%.

And the “% ‘c’” value [3]?
Its value is 0%.

What about the “% ‘a’” value [4] of the same molecule?
The value was 97.91%.

What about the “% ‘b’” value [4] of the same molecule?
The value was 1.63%.

What about the “% ‘c’” value [4] of the same molecule?
The value was 0%.

And the “% ‘a’” value [5]?
The value was 96.47%.

And the “% ‘b’” value [5]?
The value was 2.83%.

And the “% ‘c’” value [5]?
Its value is 0%.

And the “% ‘a’” value [6]?
The value was 82.51%.

What about the “% ‘b’” value [6] of the same molecule?
The value was 16.62%.

And the “% ‘c’” value [6]?
Its value is 0%.

What about the “% ‘a’” value [7] of the same molecule?
Its value is 95.25%.

What about the “% ‘b’” value [7] of the same molecule?
Its value is 4.22%.

And the “% ‘c’” value [7]?
Its value is 0%.

And the “% ‘a’” value [8]?
The value was 96.65%.

What about the “% ‘b’” value [8] of the same molecule?
Its value is 2.16%.

What about the “% ‘c’” value [8] of the same molecule?
Its value is 0.23%.

What does the source list for `CC=C(C)C(=O)OCC1=CC2C(=O)C3(C=C(C)C(O)C3(O)C1O)C(C)CC1C2C1(C)C` (stereo not drawn) [Isoform ‘c’, ingenol-20-angelate]?
% ‘a’ (Acetonitrile, 72 h 2-8° C.): 1.62%; % ‘b’ (Acetonitrile, 72 h 2-8° C.): 0%; % ‘c’ (Acetonitrile, 72 h 2-8° C.): 96.69%; % ‘a’ (Acetonitrile, 72 h 40° C.): 0.6%; % ‘b’ (Acetonitrile, 72 h 40° C.): 0%; % ‘c’ (Acetonitrile, 72 h 40° C.): 97.09%; % ‘a’ (Acetonitrile, 72 h RTP): 1.55%; % ‘b’ (Acetonitrile, 72 h RTP): 0.27%; % ‘c’ (Acetonitrile, 72 h RTP): 97.19%; % ‘a’ (Acetonitrile, Time 0 h): 1.28%; % ‘b’ (Acetonitrile, Time 0 h): 0.41%; % ‘c’ (Acetonitrile, Time 0 h): 97.30%; % ‘a’ [1]: 0.87%; % ‘b’ [1]: 0.16%; % ‘c’ [1]: 98.84%; % ‘a’ [2]: 0%; % ‘b’ [2]: 0%; % ‘c’ [2]: 98.7%; % ‘a’ [3]: 0.53%; % ‘b’ [3]: 0%; % ‘c’ [3]: 99.24%; % ‘a’ [4]: 1.12%; % ‘b’ [4]: 0.20%; % ‘c’ [4]: 98.41%; % ‘a’ [5]: 1.41%; % ‘b’ [5]: 0.27%; % ‘c’ [5]: 97.17%; % ‘a’ [6]: 0%; % ‘b’ [6]: 0%; % ‘c’ [6]: 97.75%; % ‘a’ [7]: 0.83%; % ‘b’ [7]: 0%; % ‘c’ [7]: 97.97%; % ‘a’ [8]: 1.34%; % ‘b’ [8]: 0.45%; % ‘c’ [8]: 97.02%
